Data: patent US10980835B2, “Arsenic trioxide for treatment of PIN1-associated disorders” (Beth Israel Deaconess Medical Center, Inc., priority 2016, dated 2021)

Columns and labels:
Pin1 = molecular target: T1, Pin1 (Homo sapiens, UniProt Q13526); experiment: Pin1 protein levels in triple negative breast cancer cell lines by immunoblotting; format: cell-based; details: SUM159, Hs578T and MBA-MB-231 cells
T1 construct: followed by assaying Pin1 levels using immunoblotting; endogenous in cells; host or cells: SUM159, Hs578T, MDA-MB-231 (printed MBA-MB-231)
Excerpt: FIG. 5 is a series of western blots and corresponding graphs of quantified protein expression depicting arsenic trioxide-induce Pin1 degradation in triple-negative breast cancer cell lines (SUM159, Hs578T, and MBA-MB-231).
FIG. 7 is a series of western blots and corresponding graphs of quantified protein expression levels showing that, in triple-negative breast cancer cell lines (SUM159 and Hs578T), arsenic trioxide-induced Pin1 degradation is blocked by the proteasome inhibitor, MG132.
FIG. 8 is a series of western blots and corresponding graphs of quantified protein expression levels showing that all-trans retinoic acid (ATRA) induces Pin1 degradation in triple-negative breast cancer cell lines (SUM159, Hs578T, and MBA-MB-231).
FIG. 9 is a series of western blots and corresponding graphs of quantified protein expression levels depicting decrease in Pin1 protein expression in triple-negative breast cancer cells (SUM159, Hs578T, and MBA-MB-231) following combination treatment with ATO and ATRA, as compared to treatment with either ATO or ATRA, alone. […]
Two different human triple negative breast cancer cell lines (SUM159 and Hs578T) were treated with different concentrations of ATO in the presence of the proteasome inhibitor MG132 or vehicle control DMSO. […] cells were collected and lysed and levels of Pin1 protein expression were quantified by immunoblotting. […]

Hs578t and SUM159 cells = experiment: FACS quantification of ALDH+ cells; format: cell-based, human
Excerpt: (§1) FIG. 11 is a series of plots generated by fluorescence-activated cell sorting (FACS) and a corresponding graph that depicts the quantification of aldehyde dehydrogenase-positive (ALDH+) cells following treatment with ATRA, ATO, or a combination of ATRA and ATO. ALDH is tumor marker associated with breast cancer stem cells. The fraction of ALDH+ cells is decreased in Hs578T cells treated with ATRA+ATO, as compared to those treated with either ATRA or ATO, alone.
as §1, with “12” for “11”, “SUM159” for “Hs578T”
Two different human triple negative breast cancer cell lines (Hs578t and SUM159) were treated with ATRA, ATO, or a combination of ATRA and ATO. Fluorescence-activated cell sorting (FACS) was used to quantify the proportion of aldehyde dehydrogenase-positive (ALDH+) cells following treatment. […]

[1] = test system: MDA-MB-231 breast cancer cell line; experiment: Intracellular arsenic levels by ICP-Masspec; format: cell-based, human; details: MDA-MB-231 cells treated with ATRA, relative to control
Experimental: FIGS. 16A-C are a series of graphs showing that ATRA increases intracellular arsenic concentration measured by ICP-Masspec.
Intracellular arsenic levels were measured by ICP-Masspec in breast cancer cells lines treated with either ATRA, shRNA knockdown of AQP9, or overexpression of AQP9.

[2] = test system: Human triple negative breast cancer MBA-MB-231 cells; experiment: Mouse orthotopic implantation model with MBA-MB-231 cells; format: in vivo; details: nude mice, ATO 2 mg/kg every other day, ATRA 5 mg 21 day pellets, 6 weeks
Excerpt: FIG. 17A is a graph showing that combination treatment with ATRA and ATO results in greater tumor growth inhibition than treatment with either ATRA or ATO, alone. FIG. 17B is image of the excised tumors corresponding to FIG. 17A. FIG. 17C is a graph depicting tumor volume corresponding to the tumors pictured in FIG. 17B.
Human triple negative breast cancer MBA-MB-231 cells were orthotopically implanted into nude mice. A week after tumor growth was notable, mice were randomly grouped and treated with either ATO (2 mg/kg every other day), ATRA (5 mg 21 day slow releasing pellets), or a combination of both ATO (2 mg/kg every other day) and ATRA (5 mg 21 day slow releasing pellets). Tumor growth was measured weekly for 6 weeks.

[3] = test system: triple negative breast cancer PDX; experiment: Triple negative breast cancer patient derived xenograft (PDX) mouse model; format: in vivo
Excerpt: FIGS. 18A-D show the effect of ATO and ATRA on a triple negative breast cancer patient-derived xenograft (PDX) mouse model, where treatment was initiated two weeks after implantation. FIG. 18A is a graph showing that combination treatment with ATRA and ATO results in greater tumor growth inhibition than treatment with either ATRA or ATO, alone. FIG. 18B is image of the excised tumors corresponding to FIG. 18A. FIG. 18C is a graph depicting tumor volume corresponding to the tumors picture in FIG. 18B.
FIGS. 19A-C show the effect of ATO and ATRA on a triple negative breast cancer PDX mouse model, where treatment was initiated when the tumor volume reached to 250 mm^3. FIG. 19A is a graph showing that combination treatment with ATRA and ATO results in greater tumor growth inhibition than treatment with either ATRA or ATO, alone. FIG. 19B is image of the excised tumors corresponding to FIG. 19A. FIG. 19C is a graph depicting tumor volume corresponding to the tumors picture in FIG. 19B.
FIGS. 20A-D show the effect of ATO and ATRA on a triple negative breast cancer PDX mouse model, where treatment was initiated when the tumor volume reached to 300 mm^3. FIG. 20A is a graph showing that combination treatment with ATRA and ATO results in greater tumor growth inhibition than treatment with either ATRA or ATO, alone. FIG. 20B is image of the excised tumors corresponding to FIG. 20A. FIG. 20C is a graph depicting tumor volume corresponding to the tumors picture in FIG. 20B. FIG. 20D is a western blot depicting a decrease in Pin1 expression following treatment with either ATO, ATRA, or a combination of ATO and ATRA.
(§2) A PDX mouse model of triple negative breast cancer was treated with either ATO (2 mg/kg every other day), ATRA (5 mg 21 day slow releasing pellets), or a combination of both ATO (2 mg/kg every other day) and ATRA (5 mg 21 day slow releasing pellets). Treatment was initiated two weeks after implantation. Tumor growth was measured weekly for 7 weeks.
as §2, with “Furthermore, a PDX” for “A PDX”, “initiated when the tumor volume reached 250 mm^3.” for “initiated two weeks after implantation.”, “for 6” for “for 7”
as §2, with “Finally, a PDX” for “A PDX”, “initiated when the tumor volume reached 300 mm^3.” for “initiated two weeks after implantation.”, “for 6” for “for 7”, “weeks. […]” for “weeks.”

231 and 159 cells = experiment: FACS of breast TIC-enriched CD24-CD44+ or ALDH+ population; format: cell-based, human
Experimental: (§3) To examine the effects of ATO and ATRA on TICs in TNBC, 231 and 159 cells were treated with ATO (1 μM), ATRA (10 μM) or their combination, followed by assaying the breast TIC-enriched CD24-CD44+ or ALDH+ population using fluorescence-activated cell sorting (FACS). […] To examine the effects of ATO and ATRA on self-renewal of breast TICs, different TNBC cells were treated with ATO, ATRA or their combination, followed by a serial mammosphere formation assay.

[4] = test system: TNBC 231 and 159 cells (breast TICs); experiment: Serial mammosphere formation assay; format: cell-based, human; details: serial propagation M1-M4
Experimental: FIG. 22C is a graph showing that ATO and ATRA co-treatment dramatically reduces tumor growth.
as §3
Breast TICs are notoriously resistant to cytotoxic chemotherapy drugs such as taxol, which is commonly used to treat TNBC. While taxol treatment kills non-TIC cancer cells, it is ineffective against TICs, leading to TIC-enriched taxol-resistant cells. […] Thus, the combination of ATO and ATRA inhibits the growth of taxol-resistant TNBCs. This raised the question of whether the combination of ATO and ATRA could inhibit tumor initiation and growth of breast TICs in vivo. Accordingly, the effects of ATO and ATRA combination therapy on tumor initiation of TNBCs were assayed using a limiting dilution assay in mice, a standard approach to determine tumor initiation.

T1 sequence (Q13526 whole entry): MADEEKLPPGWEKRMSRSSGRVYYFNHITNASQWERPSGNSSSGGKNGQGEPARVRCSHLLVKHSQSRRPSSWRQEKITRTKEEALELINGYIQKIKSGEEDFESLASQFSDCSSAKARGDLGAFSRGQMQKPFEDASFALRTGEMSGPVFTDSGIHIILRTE

Question: Which results are given for `CC1=C(/C=C/C(C)=C/C=C/C(C)=C/C(=O)O)C(C)(C)CCC1` [ATRA, all-trans retinoic acid]?
Answer: Pin1 levels (degradation) (Pin1): induced Pin1 degradation in a dose-dependent manner; Proportion of ALDH+ cells (Hs578t and SUM159 cells): decreased the proportion of ALDH+ cells; Intracellular arsenic concentration [1]: increase intracellular arsenic concentrations relative to control; Tumor growth [2]: inhibited tumor growth; Pin1 levels in tumors ([3]; treatment initiated at 300 mm^3): decreased; Tumor growth ([3]; treatment initiated two weeks after implantation, 7 weeks): inhibited tumor growth; Tumor growth ([3]; treatment initiated when tumor volume reached 250 mm^3, 6 weeks): inhibited tumor growth; Tumor growth ([3]; treatment initiated when tumor volume reached 300 mm^3, 6 weeks): inhibited tumor growth; Breast TIC-enriched CD24-CD44+ or ALDH+ population (231 and 159 cells): significantly reduced breast TIC-enriched population; Mammosphere formation efficiency [4]: strongly impaired mammosphere formation efficiency at M2-3
